Holding throughout (assay type): cell-based
In one test the test system is Candida tropicalis “R”. Particulars: 24 h, pH 5.6. As for the experimental part: (§1) Strains of Candida albicans, Candida tropicalis and Candida glabrata, frequently found in cases of oral candidosis, were tested for L-bCtl and D-bCtl antimicrobial activity. The sensitive strain of C. albicans (ATCC 10231^TM) was provided by ATCC (Manassas, VA, USA). The resistant strain of C. albicans, the sensitive and resistant strains of C. tropicalis as well as the sensitive and resistant strains of C. glabrata were kindly provided by Dr Valérie Letscher-Bru (Laboratory of Parasitolology and Medical Mycology, Strasbourg, France).
(§2) Each Candida strain was first plated on agar plates and cultured for 24 h at 37 °C. After incubation, one colony per isolate was transferred into 5 mL of Sabouraud medium pH 5.6 (Sigma-Aldrich, Le Pont-de-Claix, France) supplemented with tetracycline (10 μg/mL) and cefotaxime (10 μg/mL) and incubated aerobically under agitation at 37 °C for 24 h. The resulting cultures were resuspended at an absorbance of 0.001 (OD600nm = 0.001) in Sabouraud medium. The OD600nm was evaluated with a spectrophotometer (BIO-RAD Smatspec^TM plus, Schiltigheim, France). In preliminary experiments, we tested RPMI-1640 culture and Sabouraud media. Similar data were obtained but the experiments were more reproducible with Sabouraud than with RPMI1640. Therefore, Sabouraud medium was used in the present study.
(§3) The yeasts (OD600nm = 0.001) were then plated on 96-well microplates and treated with different concentrations of the peptides of interest. After 24 h incubation at 37 °C under agitation, yeast growth was assessed by optical density (OD600nm) using a microplate spectrophotometer (Multiscan EX, Thermo Fisher Scientific, Waltham, MA, USA). All tests were performed in triplicate. The MIC (minimal inhibitory concentration), defined as the lowest concentration of drug able to inhibit 100% of the growth of a pathogen, was determined for the different peptides against all previously described Candida strains, using a modified Gompertz model.

For another test, the system named is Candida albicans “R”. Particulars: 24 h, pH 5.6. As for the experimental part: as §1, §2, §3
In test [1] the test system is Candida albicans “S” (ATCC 10231). Particulars: ATCC 10231, 24 h, pH 5.6. As to the method: as §1, §2, §3
A further test has as its system Candida glabrata “R”. The note with it: 24 h, pH 5.6. As for the experimental part:
as §1, §2, §3

The next test relates to Candida glabrata “S”. The note with it: 24 h, pH 5.6. As to the method:
as §1, §2, §3

A further test has as its system Candida tropicalis “S”. Particulars: 24 h, pH 5.6. As to the method:
as §1, §2, §3

A further test concerns C. lusitaniae “S”. The experiment in a line: Susceptibility of Candida strains to antifungal drugs. Details: key to Susceptibility category: S: susceptible standard dosing regimen; R: resistant, therapeutic failure with increased exposure; I: susceptible increased exposure. Particulars: strain C. lusitaniae “S”; for Susceptibility category: EUCAST breakpoints (CLSI for Caspofungin).

The next test deals with C. glabrata “S”. The description is as above. Particulars: strain C. glabrata “S”; for Susceptibility category: EUCAST breakpoints (CLSI for Caspofungin). Also on record: key to Susceptibility category: S: susceptible standard dosing regimen; R: resistant, therapeutic failure with increased exposure; I: susceptible increased exposure. As to the method:
as §1

The test system of another test is C. albicans “S”. The description is as above. Also on record: key to Susceptibility category: S: susceptible standard dosing regimen; R: resistant, therapeutic failure with increased exposure; I: susceptible increased exposure. The note with it: strain C. albicans “S”; for Susceptibility category: EUCAST breakpoints (CLSI for Caspofungin). As for the experimental part:
as §1

The next test deals with C. tropicalis “S”. The description is as above. Details: key to Susceptibility category: S: susceptible standard dosing regimen; R: resistant, therapeutic failure with increased exposure; I: susceptible increased exposure. The note with it: strain C. tropicalis “S”; for Susceptibility category: EUCAST breakpoints (CLSI for Caspofungin). As to the method:
as §1

Another test relates to C. glabrata “R”. Described as above. Details: key to Susceptibility category: S: susceptible standard dosing regimen; R: resistant, therapeutic failure with increased exposure; I: susceptible increased exposure. The note with it: strain C. glabrata “R”; for Susceptibility category: EUCAST breakpoints (CLSI for Caspofungin). As to the method:
as §1

In a further test the test system is C. albicans “R”. The description is as above. Details: key to Susceptibility category: S: susceptible standard dosing regimen; R: resistant, therapeutic failure with increased exposure; I: susceptible increased exposure. The note with it: strain C. albicans “R”; for Susceptibility category: EUCAST breakpoints (CLSI for Caspofungin). As for the experimental part:
as §1

The test system of a further test is C. tropicalis “R”. The description is as above. Also on record: key to Susceptibility category: S: susceptible standard dosing regimen; R: resistant, therapeutic failure with increased exposure; I: susceptible increased exposure. The note with it: strain C. tropicalis “R”; for Susceptibility category: EUCAST breakpoints (CLSI for Caspofungin). As to the method:
as §1

The mark [2] stands for this setting: Clavispora lusitaniae, read-out: MIC.
Where [3] appears, read: Nakaseomyces glabratus, read-out: MIC.
[4] abbreviates: Candida albicans, read-out: MIC.
Setting [5] is: Candida tropicalis, read-out: MIC.

Five compounds from PMC8876135, “The Catestatin-Derived Peptides Are New Actors to Fight the Development of Oral Candidosis” (International Journal of Molecular Sciences, 2022) can be followed below.

≈ marks a conversion by molar mass, not a printed value. Like-named read-outs stand apart in the source and are kept apart here. Residues, ends and D or L forms follow the SMILES beside them.

On to `CSCC[C@H](NC(=O)[C@H](CO)NC(=O)[C@@H](N)CO)C(=O)N[C@@H](CCCCN)C(=O)N[C@@H](CC(C)C)C(=O)N[C@@H](CO)C(=O)N[C@@H](Cc1ccccc1)C(=O)N[C@@H](CCCNC(=N)N)C(=O)N[C@@H](C)C(=O)N[C@@H](CCCNC(=N)N)C(=O)N[C@@H](C)C(=O)N[C@@H](Cc1ccc(O)cc1)C(=O)NCC(=O)N[C@@H](Cc1ccccc1)C(=O)N[C@@H](CCCNC(=N)N)C(=O)NCC(=O)N1CCC[C@H]1C(=O)NCC(=O)N1CCC[C@H]1C(=O)N[C@@H](CCC(N)=O)C(=O)N[C@@H](CC(C)C)C(=O)O` [hCts] (H-SSMKLSFRARAYGFRGPGPQL-OH), for which the “MIC Candida tropicalis “R”” value against Candida tropicalis “R” is reported as over 240 µg/mL. Further, the “MIC C. albicans “R”” value against Candida albicans “R” was over 240 µg/mL. Besides, the “MIC C. albicans “S”” value in test [1] is over 240 µg/mL. Further, in the test with Candida glabrata “R”, the “MIC Candida glabrata “R”” value is on record as over 240 µg/mL. Besides, the “MIC Candida glabrata “S”” value with Candida glabrata “S” is over 240 µg/mL. Also, the “MIC Candida tropicalis “S”” value in the test with Candida tropicalis “S” is over 240 µg/mL.
Caspofungin: the MIC in the test on C. lusitaniae “S” worked out at 0.125 µg/mL; in the test on C. glabrata “S” it was 0.25 µg/mL; against C. albicans “S”, 0.094 µg/mL; with C. tropicalis “S”, 0.125 µg/mL; in the test with C. glabrata “R”, 0.25 µg/mL; against C. albicans “R”, 0.047 µg/mL. In the test on C. tropicalis “R”, this compound returned an MIC of 0.125 µg/mL. For the same compound, the Susceptibility category result in the test on C. lusitaniae “S” is given as “S”; in the test on C. glabrata “S”, “I”; in the test on C. albicans “S” it was “S”; in the test with C. tropicalis “S” it was “S”; in the test with C. glabrata “R”, “I”; with C. albicans “R”, “S”. Also, the Susceptibility category entry in the test with C. tropicalis “R” is on record as “S”.
Consider `C[C@@H]1[C@H](O)[C@@H](C)/C=C/C=C/C=C/C=C/C=C/C=C/C=C/[C@H](O[C@@H]2O[C@H](C)[C@@H](O)[C@H](N)[C@@H]2O)C[C@@H]2O[C@](O)(C[C@@H](O)C[C@@H](O)[C@H](O)CC[C@@H](O)C[C@@H](O)CC(=O)O[C@H]1C)C[C@H](O)[C@H]2C(=O)O` [Amphotericin B], for which the MIC was 0.75 µg/mL (≈ 0.812 µM) in the test on C. lusitaniae “S” (setting [2]); 0.125 µg/mL (≈ 0.135 µM) in the test with C. glabrata “S” (setting [3]); 0.19 µg/mL (≈ 0.206 µM) with C. albicans “S” (setting [4]); 0.125 µg/mL (≈ 0.135 µM) in the test with C. tropicalis “S” (setting [5]); 0.5 µg/mL (≈ 0.541 µM) with C. glabrata “R” (setting [3]); 0.125 µg/mL (≈ 0.135 µM) in the test on C. albicans “R” (setting [4]). Besides, the MIC with C. tropicalis “R” (setting [5]) came out at 0.125 µg/mL (≈ 0.135 µM). In addition, the Susceptibility category result in the test on C. lusitaniae “S”, with C. glabrata “S”, in the test on C. albicans “S”, in the test with C. tropicalis “S”, in the test with C. glabrata “R” and with C. albicans “R” was “S” throughout. Moreover, the Susceptibility category result in the test on C. tropicalis “R” is listed as “S”.
`C[C@@H](c1ncncc1F)[C@](O)(Cn1cncn1)c1ccc(F)cc1F` [Voriconazole]: the MIC in the test on C. lusitaniae “S” (setting [2]) is 0.012 µg/mL (≈ 0.0344 µM); in the test with C. glabrata “S” (setting [3]) it was 0.032 µg/mL (≈ 0.0916 µM); in the test on C. albicans “S” (setting [4]), 0.002 µg/mL (≈ 0.00573 µM); with C. tropicalis “S” (setting [5]), 0.047 µg/mL (≈ 0.135 µM); with C. glabrata “R” (setting [3]), 8 µg/mL (≈ 22.9 µM); in the test with C. albicans “R” (setting [4]), over 32 µg/mL. For the same compound, the MIC in the test on C. tropicalis “R” (setting [5]) stood at 1.5 µg/mL (≈ 4.29 µM). In addition, the Susceptibility category entry in the test with C. lusitaniae “S” is given as “S”; in the test on C. glabrata “S” it was “S”; in the test with C. albicans “S”, “S”; with C. tropicalis “S” it was “S”; with C. glabrata “R”, “R”; in the test on C. albicans “R”, “R”. Further, in the test with C. tropicalis “R”, the Susceptibility category result is on record as “R”.
Turning to `OC(Cn1cncn1)(Cn1cncn1)c1ccc(F)cc1F` [Fluconazole], the MIC in the test with C. lusitaniae “S” (setting [2]) is 0.38 µg/mL (≈ 1.24 µM); in the test with C. glabrata “S” (setting [3]), 3 µg/mL (≈ 9.8 µM); in the test with C. albicans “S” (setting [4]), 0.125 µg/mL (≈ 0.408 µM); in the test with C. tropicalis “S” (setting [5]), 0.5 µg/mL (≈ 1.63 µM); in the test with C. glabrata “R” (setting [3]), over 256 µg/mL; with C. albicans “R” (setting [4]), over 256 µg/mL. Further, the MIC with C. tropicalis “R” (setting [5]) came to 96 µg/mL (≈ 313 µM). Besides, the Susceptibility category entry with C. lusitaniae “S” is “S”; in the test on C. glabrata “S”, “I”; in the test on C. albicans “S”, “S”; in the test with C. tropicalis “S”, “S”; with C. glabrata “R”, “R”; in the test with C. albicans “R” it was “R”. Further, in the test on C. tropicalis “R”, the Susceptibility category result is given as “R”.

A word on the MIC: it is the least concentration at which growth counts as inhibited.
